Test [1] relates to primary human total T-cells. Briefly: T-cell activation, CD25 surface staining, Biological Example 2. The class given is cell-based. The following applies: 48 hours, fold change over baseline; for fold induction at 0.3 µM: 0.3 μM inhibitor; for fold induction at 1 µM: 1 μM inhibitor; for fold induction at 3 µM: 3 μM inhibitor.
Test [2] relates to primary human total T-cells. Briefly: T-cell activation, IL-2 secretion, Biological Example 2. The class given is cell-based. The conditions noted are these: 48 hours, fold change over baseline; for fold induction at 0.3 µM: 0.3 μM inhibitor; for fold induction at 1 µM: 1 μM inhibitor; for fold induction at 3 µM: 3 μM inhibitor.
Test [3] addresses Cbl-b (Homo sapiens (Human), UniProt Q13191). Briefly: Cbl-b displacement assay (Cbl-b inhibition assay), Biological Example 1. The class given is binding. In short, it runs like this: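 Probe displacement read as TR-FRET (520/620 nm) after 1 h with 2 nM streptavidin-terbium and 150 nM BODIPY FL-labelled inhibitor probe, about EC40. Before that, compound in 1% DMSO sat 1 h at room temperature with N-Avitag biotinylated Cbl-b 36–427, 0.5 nM (High) or 0.125 nM (Low), in pH 7.5 HEPES buffer.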

Where [4] appears, read: anti-CD3 and anti-CD28 co-stimulation.
Setting [5] is: anti-CD3 and anti-CD28 co-stimulation, read-out: CD25 staining CD3/CD28 1 μM.
The mark [6] stands for this setting: anti-CD3 stimulation alone, read-out: CD25 staining CD3 1 μM.
Setting [7] is: anti-CD3 and anti-CD28 co-stimulation, read-out: IL-2 secretion CD3/CD28 1 μM.
The mark [8] stands for this setting: anti-CD3 stimulation alone, read-out: IL-2 secretion CD3 1 μM.
The mark [9] stands for this setting: 0.125 nM Cbl-b final concentration (Low), read-out: Cbl-b activity IC50 (Low).
The mark [10] stands for this setting: read-out: IC50 values in the Cbl-b inhibition assay of Biological Example 1.

Where two headings read alike, the source gives them in different places. Bounds are passed on as bounds.

As a reminder, the IC50 is the concentration that gives 50% inhibition.

Chain of Cbl-b (Q13191 36-427): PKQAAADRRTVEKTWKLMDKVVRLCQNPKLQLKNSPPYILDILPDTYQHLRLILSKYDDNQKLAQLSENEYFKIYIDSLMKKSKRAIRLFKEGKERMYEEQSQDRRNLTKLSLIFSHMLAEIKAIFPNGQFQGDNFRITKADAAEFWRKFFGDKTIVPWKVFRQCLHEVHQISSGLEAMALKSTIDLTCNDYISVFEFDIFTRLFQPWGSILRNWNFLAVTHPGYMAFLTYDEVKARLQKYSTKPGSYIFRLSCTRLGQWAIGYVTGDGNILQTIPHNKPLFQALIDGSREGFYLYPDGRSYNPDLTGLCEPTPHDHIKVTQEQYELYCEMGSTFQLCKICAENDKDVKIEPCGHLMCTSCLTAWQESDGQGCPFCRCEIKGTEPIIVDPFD

Regarding `COCC1CCCCN(Cc2cc3c(c(C(F)(F)F)c2)CN(c2cccc([C@]4(Cc5nncn5C)C[C@@H](C#N)C4)c2)C3=O)C1` (stereo partly drawn) [Compound 45, (1r,3r)-3-(3-(6-((3-(methoxymethyl)azepan-1-yl)methyl)-1-oxo-4-(trifluoromethyl)isoindolin-2-yl)phenyl)-3-((4-methyl-4H-1,2,4-triazol-3-yl)methyl)cyclobutane-1-carbonitrile], the fold induction at 0.3 µM was 1.24 to 1.39 in test [1] (setting [4]) and no more than 15 in test [2] (setting [4]). In addition, the fold induction at 1 µM in test [1] (setting [5]) is 1.24 to 1.39; in test [1] (setting [6]), 1 to 1.15; in test [2] (setting [7]), greater than 20; in test [2] (setting [8]), 0.4 to 0.85. The fold induction at 3 µM in test [1] (anti-CD3 stimulation alone) was 1 to 1.15; in test [2] (anti-CD3 stimulation alone) it was greater than 0.85. Moreover, the IC50 in test [3] (setting [9]) and in test [3] (setting [10]) was 2 to 5 nM each time.
Turning to `COCC1COCCN(Cc2cc3c(c(C(F)(F)F)c2)CN(c2cccc([C@]4(Cc5nncn5C)C[C@@H](C#N)C4)c2)C3=O)C1` (stereo partly drawn) [Compound 46, (1r,3r)-3-(3-(6-((6-(methoxymethyl)-1,4-oxazepan-4-yl)methyl)-1-oxo-4-(trifluoromethyl)isoindolin-2-yl)phenyl)-3-((4-methyl-4H-1,2,4-triazol-3-yl)methyl)cyclobutane-1-carbonitrile], the values for the fold induction at 0.3 µM in test [1] (setting [4]) and in test [2] (setting [4]) were greater than 1.39 and no more than 15, respectively. Besides, the fold induction at 1 µM in test [1] (setting [5]) is greater than 1.39; in test [1] (setting [6]), greater than 1.15; in test [2] (setting [7]), 15 to 20; in test [2] (setting [8]), 0.4 to 0.85. Further, the fold induction at 3 µM in test [1] (anti-CD3 stimulation alone) is greater than 1.15; in test [2] (anti-CD3 stimulation alone), greater than 0.85. In addition, the IC50 in test [3] (setting [9]) and in test [3] (setting [10]) was 5 to 20 nM each time.
Regarding `Cn1cnnc1C[C@]1(c2cccc(N3Cc4c(cc(CN5CC6CCC(F)(F)C6C5)cc4C(F)(F)F)C3=O)c2)C[C@H](C#N)C1` (stereo partly drawn) [Compound 47, (1r,3r)-3-(3-(6-((4,4-difluorohexahydrocyclopenta[c]pyrrol-2(1H)-yl)methyl)-1-oxo-4-(trifluoromethyl)isoindolin-2-yl)phenyl)-3-((4-methyl-4H-1,2,4-triazol-3-yl)methyl)cyclobutane-1-carbonitrile], the fold induction at 0.3 µM in test [1] (setting [4]) is greater than 1.39; in test [2] (setting [4]), greater than 20. Also, the fold induction at 1 µM in test [1] (setting [5]) was greater than 1.39; in test [1] (setting [6]), greater than 1.15; in test [2] (setting [7]), greater than 20; in test [2] (setting [8]), greater than 0.85. For the same molecule, the fold induction at 3 µM in test [1] (anti-CD3 stimulation alone) is greater than 1.15; in test [2] (anti-CD3 stimulation alone), greater than 0.85. The IC50 in test [3] (setting [9]) and in test [3] (setting [10]) was 2 to 5 nM in each case.
As to `Cn1cnnc1C[C@]1(c2cccc(N3Cc4c(cc(CN5CCCCC(CO)C5)cc4C(F)(F)F)C3=O)c2)C[C@H](C#N)C1` (stereo partly drawn) [Compound 48, (1r,3r)-3-(3-(6-((3-(hydroxymethyl)azepan-1-yl)methyl)-1-oxo-4-(trifluoromethyl)isoindolin-2-yl)phenyl)-3-((4-methyl-4H-1,2,4-triazol-3-yl)methyl)cyclobutane-1-carbonitrile], the fold induction at 0.3 µM was greater than 1.39 in test [1] (setting [4]) and no more than 15 in test [2] (setting [4]). Also, the fold induction at 1 µM is greater than 1.39 in test [1] (setting [5]), greater than 1.15 in test [1] (setting [6]), greater than 20 in test [2] (setting [7]) and 0.4 to 0.85 in test [2] (setting [8]). Further, the fold induction at 3 µM was greater than 1.15 in test [1] (anti-CD3 stimulation alone) and 0.4 to 0.85 in test [2] (anti-CD3 stimulation alone). The IC50 in test [3] (setting [9]) and in test [3] (setting [10]) was 1 to 2 nM throughout.
For the molecule `Cn1cnnc1C[C@]1(c2cccc(N3Cc4c(cc(CN5CCC[C@H](C(F)(F)F)C5)nc4C4CC4)C3=O)c2)C[C@H](C#N)C1` [Compound 49, (1r,3r)-3-(3-(4-cyclopropyl-1-oxo-6-(((S)-3-(trifluoromethyl)piperidin-1-yl)methyl)-1,3-dihydro-2H-pyrrolo[3,4-c]pyridin-2-yl)phenyl)-3-((4-methyl-4H-1,2,4-triazol-3-yl)methyl)cyclobutane-1-carbonitrile], the fold induction at 0.3 µM in test [1] (setting [4]) was greater than 1.39; in test [2] (setting [4]) it was greater than 20. The fold induction at 1 µM in test [1] (setting [5]) was greater than 1.39; in test [1] (setting [6]) it was greater than 1.15; in test [2] (setting [7]), greater than 20; in test [2] (setting [8]), greater than 0.85. Besides, the fold induction at 3 µM in test [1] (anti-CD3 stimulation alone) was greater than 1.15; in test [2] (anti-CD3 stimulation alone), greater than 0.85. In addition, the IC50 in test [3] (setting [9]) and in test [3] (setting [10]) was less than 1 nM in each case.
Regarding `Cn1cnnc1C[C@]1(c2cccc(N3Cc4c(cc(CN5CCCCC(F)(F)C5)cc4C(F)(F)F)C3=O)c2)C[C@H](C#N)C1` [Compound 50, (1r,3r)-3-(3-(6-((3,3-difluoroazepan-1-yl)methyl)-1-oxo-4-(trifluoromethyl)isoindolin-2-yl)phenyl)-3-((4-methyl-4H-1,2,4-triazol-3-yl)methyl)cyclobutane-1-carbonitrile], the fold induction at 0.3 µM is greater than 1.39 in test [1] (setting [4]) and greater than 20 in test [2] (setting [4]). For the same molecule, the fold induction at 1 µM in test [1] (setting [5]) is greater than 1.39; in test [1] (setting [6]), greater than 1.15; in test [2] (setting [7]), greater than 20; in test [2] (setting [8]), greater than 0.85. The fold induction at 3 µM was greater than 1.15 in test [1] (anti-CD3 stimulation alone) and 0.4 to 0.85 in test [2] (anti-CD3 stimulation alone). In addition, the IC50 in test [3] (setting [9]) and in test [3] (setting [10]) was 2 to 5 nM throughout.
Turning to `Cn1cnnc1C[C@]1(c2cccc(NC(=O)c3cc(CN4CCC5(CC5)C4)cc(C4CC4)n3)c2)C[C@H](C#N)C1` [Compound 53, 4-((5-azaspiro[2.4]heptan-5-yl)methyl)-N-(3-((1r,3r)-3-cyano-1-((4-methyl-4H-1,2,4-triazol-3-yl)methyl)cyclobutyl)phenyl)-6-cyclopropylpicolinamide], the values for the fold induction at 0.3 µM in test [1] (setting [4]) and in test [2] (setting [4]) were no more than 1.24 and 15 to 20, respectively. Besides, the fold induction at 1 µM is no more than 1.24 in test [1] (setting [5]), 1 to 1.15 in test [1] (setting [6]), 15 to 20 in test [2] (setting [7]) and 0.4 to 0.85 in test [2] (setting [8]). The values for the fold induction at 3 µM in test [1] (anti-CD3 stimulation alone) and in test [2] (anti-CD3 stimulation alone) were 1 to 1.15 and 0.4 to 0.85, respectively. For the same molecule, the IC50 in test [3] (0.5 nM Cbl-b final concentration (High), read-out: Cbl-b activity IC50 (High)) is less than 1 nM.
`C[C@@H]1C[C@H](C)CN(Cc2cc(C(=O)Nc3cccc([C@]4(Cc5nncn5C)C[C@@H](C#N)C4)c3)nc(C3CC3)c2)C1` [Compound 54]: the fold induction at 0.3 µM in test [1] (setting [4]) is 1.24 to 1.39; in test [2] (setting [4]), greater than 20. The fold induction at 1 µM was 1.24 to 1.39 in test [1] (setting [5]), no more than 1 in test [1] (setting [6]), greater than 20 in test [2] (setting [7]) and greater than 0.85 in test [2] (setting [8]). Further, the fold induction at 3 µM in test [1] (anti-CD3 stimulation alone) was no more than 1; in test [2] (anti-CD3 stimulation alone) it was greater than 0.85. In addition, the IC50 in test [3] (setting [9]) is less than 1 nM.
For the molecule `C[C@H]1CCCN(Cc2cc(C(=O)Nc3cccc([C@]4(Cc5nncn5C)C[C@@H](C#N)C4)c3)nc(C3CC3)c2)C1` [Compound 55, N-(3-((1r,3S)-3-cyano-1-((4-methyl-4H-1,2,4-triazol-3-yl)methyl)cyclobutyl)phenyl)-6-cyclopropyl-4-(((S)-3-methylpiperidin-1-yl)methyl)picolinamide], the fold induction at 0.3 µM is 1.24 to 1.39 in test [1] (setting [4]) and greater than 20 in test [2] (setting [4]). For the same molecule, the fold induction at 1 µM in test [1] (setting [5]) is 1.24 to 1.39; in test [1] (setting [6]), no more than 1; in test [2] (setting [7]), greater than 20; in test [2] (setting [8]), greater than 0.85. Besides, the fold induction at 3 µM in test [1] (anti-CD3 stimulation alone) was no more than 1; in test [2] (anti-CD3 stimulation alone) it was greater than 0.85. Besides, in test [3] (setting [9]), the IC50 is less than 1 nM.
Regarding `C[C@@H]1CN(Cc2cc(C(=O)Nc3cccc([C@]4(Cc5nncn5C)C[C@@H](C#N)C4)c3)nc(C3CC3)n2)CCC1(F)F` [Compound 57, N-(3-((1r,3R)-3-cyano-1-((4-methyl-4H-1,2,4-triazol-3-yl)methyl)cyclobutyl)phenyl)-2-cyclopropyl-6-(((R)-4,4-difluoro-3-methylpiperidin-1-yl)methyl)pyrimidine-4-carboxamide], the fold induction at 0.3 µM in test [1] (setting [4]) was in the range of 1.24 to 1.39; in test [2] (setting [4]), 15 to 20. The fold induction at 1 µM is 1.24 to 1.39 in test [1] (setting [5]), 1 to 1.15 in test [1] (setting [6]), greater than 20 in test [2] (setting [7]) and 0.4 to 0.85 in test [2] (setting [8]). In addition, the fold induction at 3 µM was no more than 1 in test [1] (anti-CD3 stimulation alone) and greater than 0.85 in test [2] (anti-CD3 stimulation alone). In test [3] (setting [9]), the IC50 was less than 1 nM.

The values above are taken from US11530229B2, “Cyano cyclobutyl compounds for CBL-B inhibition and uses thereof” (Nurix Therapeutics, Inc., priority 2019, dated 2022).
